{"source": "ChEMBL document CHEMBL1201862", "about": "“PubChem BioAssay data set” (2004)", "key": {"[1]": {"target": "Heat shock protein HSP 90-alpha (Homo sapiens, UniProt P07900)", "format": "functional, organism-based"}, "Beta-galactosidase": {"target": "Beta-galactosidase (Escherichia coli, UniProt Q8VNN2)", "sequence (Q8VNN2 whole entry)": "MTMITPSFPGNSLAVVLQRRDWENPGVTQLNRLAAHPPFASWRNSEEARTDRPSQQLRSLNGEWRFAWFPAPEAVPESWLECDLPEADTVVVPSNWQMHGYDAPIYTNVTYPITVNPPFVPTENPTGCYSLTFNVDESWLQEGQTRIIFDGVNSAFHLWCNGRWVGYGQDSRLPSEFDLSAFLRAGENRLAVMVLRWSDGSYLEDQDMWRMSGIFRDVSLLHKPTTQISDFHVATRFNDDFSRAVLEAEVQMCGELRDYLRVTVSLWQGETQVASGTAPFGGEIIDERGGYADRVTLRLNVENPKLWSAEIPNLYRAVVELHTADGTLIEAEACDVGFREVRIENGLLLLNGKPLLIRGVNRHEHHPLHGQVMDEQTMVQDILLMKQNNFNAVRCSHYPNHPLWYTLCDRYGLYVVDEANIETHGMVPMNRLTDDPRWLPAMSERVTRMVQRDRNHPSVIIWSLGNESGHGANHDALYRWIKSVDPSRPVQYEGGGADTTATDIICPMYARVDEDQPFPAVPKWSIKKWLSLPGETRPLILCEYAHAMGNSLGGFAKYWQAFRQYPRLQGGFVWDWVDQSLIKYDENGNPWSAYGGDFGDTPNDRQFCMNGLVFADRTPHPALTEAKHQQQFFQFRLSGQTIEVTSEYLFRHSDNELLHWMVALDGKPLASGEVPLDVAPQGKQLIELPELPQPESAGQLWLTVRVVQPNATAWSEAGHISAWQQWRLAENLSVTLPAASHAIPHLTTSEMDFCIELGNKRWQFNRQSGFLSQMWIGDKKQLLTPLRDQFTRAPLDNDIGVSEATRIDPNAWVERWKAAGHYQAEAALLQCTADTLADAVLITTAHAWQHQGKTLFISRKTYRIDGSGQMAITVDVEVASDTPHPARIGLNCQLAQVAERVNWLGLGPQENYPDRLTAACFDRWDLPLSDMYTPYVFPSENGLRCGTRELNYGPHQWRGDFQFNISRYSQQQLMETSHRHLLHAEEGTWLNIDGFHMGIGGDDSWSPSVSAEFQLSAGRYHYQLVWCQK", "assay": "beta-galactosidase enzyme inhibitors and activators, dose response, artefact control for CCR6 antagonist project, biochemical, E. coli enzyme, set 3 (AID 504712)", "format": "functional"}, "[2]": {"assay": "Shn3 3'UTR reporter inhibitors, dose response, cell-based, Clone20 osteoblasts, firefly luciferase, cherry-picked (AID 624132)", "format": "functional"}, "[3]": {"target": "T1, Polyadenylate-binding protein 1 (Homo sapiens, UniProt P11940)", "T1 sequence (P11940 whole entry)": "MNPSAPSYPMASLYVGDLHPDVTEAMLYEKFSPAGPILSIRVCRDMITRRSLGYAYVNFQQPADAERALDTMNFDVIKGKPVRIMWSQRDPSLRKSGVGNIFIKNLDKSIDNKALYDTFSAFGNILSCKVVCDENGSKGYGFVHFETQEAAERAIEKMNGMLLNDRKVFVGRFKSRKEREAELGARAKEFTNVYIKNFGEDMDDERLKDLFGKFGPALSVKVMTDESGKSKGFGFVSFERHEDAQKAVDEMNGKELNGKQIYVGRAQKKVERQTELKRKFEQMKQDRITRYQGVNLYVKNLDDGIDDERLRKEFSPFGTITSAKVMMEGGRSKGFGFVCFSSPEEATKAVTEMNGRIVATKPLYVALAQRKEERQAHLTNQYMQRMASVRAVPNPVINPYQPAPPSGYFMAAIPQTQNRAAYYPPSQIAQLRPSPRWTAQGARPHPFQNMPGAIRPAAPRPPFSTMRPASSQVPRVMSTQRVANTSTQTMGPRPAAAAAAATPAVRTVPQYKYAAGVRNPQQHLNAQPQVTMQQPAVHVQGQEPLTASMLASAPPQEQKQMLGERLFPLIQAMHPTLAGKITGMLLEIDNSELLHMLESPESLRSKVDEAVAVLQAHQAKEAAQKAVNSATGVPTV", "assay": "PABP1 MLLE–PAM2 interaction inhibitors, dose response, miRNA deadenylation inhibitor project, biochemical, fluorescence polarization, Cy5-PAM2 peptide, secondary (AID 602260)", "format": "functional", "settings": "read-out: IC50_Mean"}, "Beta Lactamase [4]": {"target": "T2, Beta Lactamase (Pseudomonas aeruginosa, UniProt Q932Y6)", "T2 sequence (Q932Y6 whole entry)": "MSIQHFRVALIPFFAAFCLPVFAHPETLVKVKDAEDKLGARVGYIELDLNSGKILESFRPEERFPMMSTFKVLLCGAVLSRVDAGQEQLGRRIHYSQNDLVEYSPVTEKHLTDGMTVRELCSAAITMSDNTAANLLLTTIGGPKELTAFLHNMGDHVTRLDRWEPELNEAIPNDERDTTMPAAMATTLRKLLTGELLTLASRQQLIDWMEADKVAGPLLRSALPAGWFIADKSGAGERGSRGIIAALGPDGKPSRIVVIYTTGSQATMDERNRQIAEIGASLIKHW", "assay": "beta-lactamase reporter inhibitor potency, dose response, artefact control for TLR9-MyD88 binding inhibitor project, BLA reporter cells, FRET fluorescence (AID 588341)", "format": "cell-based"}, "Beta Lactamase [5]": {"target": "T2, Beta Lactamase", "assay": "beta-lactamase reporter inhibitor potency, dose response, artefact control for NOD2-RIPK2 interaction inhibitor project, BLA reporter cells, FRET fluorescence (AID 651552)", "format": "functional, cell-based"}, "CHO": {"tested_on": "CHO", "assay": "cytotoxicity in TLR9-MyD88 CHO cells, dose response, cytotoxicity control for TLR9-MyD88 binding inhibitor project, cell-based, luminescence (AID 588339);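 note: CHO cells stably coexpressing TLR9 and MyD88 fusions from primary screen; compound exposure lasted 48 hours before viability readout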", "format": "functional, hamster", "settings": "Cricetulus griseus"}, "[6]": {"assay": "control 3'UTR Renilla luciferase suppression, dose response, counter-screen for Shn3 inhibitor project, cell-based, Clone20-Shn3RL, cherry-picked (AID 624133)", "format": "functional"}, "[7]": {"target": "T1, Polyadenylate-binding protein 1", "assay": "PABP1 MLLE–PAM2 binding inhibitor potency, dose response, biochemical, fluorescence polarization, FITC-PAM2 peptide (AID 602259)", "format": "functional", "settings": "read-out: IC50_Mean"}, "[8]": {"assay": "HepG2 cell cytotoxicity, dose response, cytotoxicity control for Shn3 inhibitor project, CellTiter-Glo, cherry-picked (AID 624134)", "format": "functional, cell-based"}, "[9]": {"assay": "Fluorescence-based cell-based high throughput dose response assay for inhibitors of the interaction of nucleotide-binding oligomerization domain containing 2 (NOD2) and the receptor-interacting serine-threonine kinase 2 (RIPK2).", "format": "functional", "settings": "Homo sapiens"}, "[10]": {"assay": "(§1) Counterscreen for antagonists of the orexin 1 receptor (OX1R; HCRTR1): Fluorescence-based cell-based high throughput dose response assay to identify antagonists of the parental CHO cell line. [Related pubchem assays (depositor defined):AID434989, AID435008, AID463079, AID485270, AID492963, AID492964, AID492965, AID493232, AID504699, AID504701]", "format": "functional"}, "Orexin receptor type 2 [11]": {"target": "T3, Orexin receptor type 2 (Homo sapiens, UniProt O43614)", "T3 sequence (O43614 whole entry)": "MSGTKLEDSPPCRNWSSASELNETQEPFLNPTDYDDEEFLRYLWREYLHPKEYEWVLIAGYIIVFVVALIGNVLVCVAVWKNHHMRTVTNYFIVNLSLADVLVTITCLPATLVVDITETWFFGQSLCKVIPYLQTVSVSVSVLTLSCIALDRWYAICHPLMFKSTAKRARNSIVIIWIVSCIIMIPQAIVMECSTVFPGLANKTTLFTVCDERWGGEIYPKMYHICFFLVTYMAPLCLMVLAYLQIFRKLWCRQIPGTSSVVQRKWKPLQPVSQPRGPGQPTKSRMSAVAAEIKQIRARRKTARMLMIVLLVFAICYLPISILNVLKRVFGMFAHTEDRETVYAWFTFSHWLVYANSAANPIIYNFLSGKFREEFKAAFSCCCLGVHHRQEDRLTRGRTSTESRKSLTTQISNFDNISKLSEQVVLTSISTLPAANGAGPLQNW", "assay": "Counterscreen assay for antagonists of the orexin 1 receptor (OX1R; HCRTR1): Homogeneous Time Resolved Fluorescence (HTRF)-based cell-based dose response assay for antagonists of the orexin 2 receptor (OX2R; HCRTR2), run by assay provider.", "format": "functional"}, "CHO-K1": {"tested_on": "CHO-K1", "assay": "as §1, with “Homogeneous time resolved fluorescence (HTRF)-based” for “Fluorescence-based”, “cell-based” for “cell-based high throughput”, “CHO-K1” for “CHO”", "format": "functional", "settings": "Cricetulus griseus"}, "[12]": {"target": "T4, Orexin/Hypocretin receptor type 1 (Homo sapiens, UniProt O43613)", "T4 sequence (O43613 whole entry)": "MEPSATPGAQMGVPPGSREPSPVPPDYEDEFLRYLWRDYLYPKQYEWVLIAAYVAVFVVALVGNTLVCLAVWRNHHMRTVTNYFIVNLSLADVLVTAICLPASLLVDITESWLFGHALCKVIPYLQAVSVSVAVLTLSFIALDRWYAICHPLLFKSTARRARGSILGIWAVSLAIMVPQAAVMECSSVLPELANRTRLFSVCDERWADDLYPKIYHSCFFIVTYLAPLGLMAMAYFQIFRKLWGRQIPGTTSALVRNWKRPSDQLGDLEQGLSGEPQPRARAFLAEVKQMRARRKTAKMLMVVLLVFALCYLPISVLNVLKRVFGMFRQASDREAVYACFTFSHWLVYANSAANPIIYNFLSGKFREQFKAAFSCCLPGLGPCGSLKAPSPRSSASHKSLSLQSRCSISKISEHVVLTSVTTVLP", "assay": "Homogeneous Time Resolved Fluorescence (HTRF)-based cell-based high throughput dose response assay for antagonists of the orexin 1 receptor (OX1R; HCRTR1). [Related pubchem assays (depositor defined):AID434989, AID435008, AID463079, AID485270, AID492963, AID492964, AID492965, AID493232, AID504717, AID504718]", "format": "functional"}, "Orexin receptor type 2 [13]": {"target": "T3, Orexin receptor type 2", "assay": "Counterscreen assay for antagonists of the orexin 1 receptor (OX1R; HCRTR1): Fluorescence-based cell-based dose response assay for antagonists of the orexin 2 receptor (OX2R; HCRTR2), run by assay provider.", "format": "functional"}, "[14]": {"target": "T4, Orexin/Hypocretin receptor type 1", "assay": "Fluorescence-based cell-based high throughput dose response assay for antagonists of the orexin 1 receptor (OX1R; HCRTR1). [Related pubchem assays (depositor defined):AID434989, AID435008, AID463079, AID485270, AID492963, AID492964, AID492965, AID493232, AID504717, AID504718]", "format": "functional"}, "Cytochrome P450 2C9": {"target": "Cytochrome P450 2C9 (Homo sapiens, UniProt P11712)", "sequence (P11712 whole entry)": "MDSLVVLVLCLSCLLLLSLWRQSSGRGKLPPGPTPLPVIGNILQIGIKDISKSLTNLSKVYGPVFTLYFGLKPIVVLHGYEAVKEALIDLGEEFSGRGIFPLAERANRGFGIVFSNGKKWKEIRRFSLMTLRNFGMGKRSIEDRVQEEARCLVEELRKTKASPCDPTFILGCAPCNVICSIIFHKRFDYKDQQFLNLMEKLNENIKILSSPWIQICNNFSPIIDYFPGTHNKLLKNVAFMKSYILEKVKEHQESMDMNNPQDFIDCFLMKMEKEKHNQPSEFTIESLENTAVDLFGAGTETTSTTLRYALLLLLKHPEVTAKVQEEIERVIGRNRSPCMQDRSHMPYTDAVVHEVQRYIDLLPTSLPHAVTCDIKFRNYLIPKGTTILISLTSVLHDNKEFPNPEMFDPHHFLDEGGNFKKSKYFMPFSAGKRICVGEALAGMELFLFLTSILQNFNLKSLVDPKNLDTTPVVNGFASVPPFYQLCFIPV"}, "[15]": {"assay": "viability loss in Mcl1-dependent HMC-1-8 cells, dose response, selectivity assay for A1 inhibitor project, cell-based, luminescence, dry powder (AID 504415)", "format": "functional", "settings": "Homo sapiens"}}, "note": "The source made the active and inactive calls."}
{"smiles": "O=C(c1ccccc1)c1ccccc1N1C(=O)C=CC1=O", "values": [{"measurement": "AC50", "setting": "[1]", "result": "2.21 µM (active)"}, {"measurement": "IC50", "setting": "Beta-galactosidase", "result": "> 66.6 µM (inactive)"}, {"measurement": "AC50", "setting": "[2]", "result": "16.7 µM (active)"}, {"measurement": "IC50", "setting": "[3]", "result": "> 66 µM (inactive)"}, {"measurement": "IC50", "setting": "Beta Lactamase [4]", "result": "15.3 µM (inactive)"}, {"measurement": "IC50", "setting": "Beta Lactamase [5]", "result": "15.5 µM (inactive)"}, {"measurement": "IC50", "setting": "CHO", "result": "2.78 µM (active)"}, {"measurement": "AC50", "setting": "[6]", "result": "12.5 µM (active)"}, {"measurement": "IC50", "setting": "[7]", "result": "> 66 µM (inactive)"}, {"measurement": "AC50", "setting": "[8]", "result": "24.6 µM (active)"}, {"measurement": "IC50", "setting": "[9]", "result": "1.99 µM (active)"}]}
{"smiles": "CCn1c(SCC(=O)c2ccc3ccccc3c2)nnc1-c1cccs1", "values": [{"measurement": "IC50", "setting": "[10]", "result": "> 49.8 µM (inactive)"}, {"measurement": "IC50", "setting": "Orexin receptor type 2 [11]", "result": "> 50 µM (inactive)"}, {"measurement": "IC50", "setting": "CHO-K1", "result": "> 66.2 µM (inactive)"}, {"measurement": "IC50", "setting": "[12]", "result": "6.66 µM (active)"}, {"measurement": "IC50", "setting": "Orexin receptor type 2 [13]", "result": "> 88.8 µM (inactive)"}, {"measurement": "IC50", "setting": "[14]", "result": "17.6 µM (inactive)"}, {"measurement": "AC50", "setting": "Cytochrome P450 2C9", "result": "17.8 µM (inconclusive)"}]}
{"smiles": "Cn1c(=O)c([N+](=O)[O-])c(Nc2ccc(Cl)cc2)c2ccccc21", "values": [{"measurement": "AC50", "setting": "[15]", "result": "> 350 µM (inactive)"}]}
